Results published in US9248142B2, “Non-hormonal female contraceptive” (University of Florida Research Foundation, Inc., priority 2010, dated 2016).
Like-named read-outs stand apart in the source and are kept apart here.

Legend:
Foxo3a mRNA [1] = assay: Foxo3a mRNA by real-time RT-PCR in SKOV3 cells treated with 2-deoxyglucose; format: cell-based, human
Description: In another embodiment, the subject invention relates to a method for decreasing the fertility of a subject, comprising administering a therapeutically effective amount of a glucose analog to the subject, wherein the glucose analog comprises one or more of (i) 2-deoxyglucose (2DG) or a combination of 2DG with chemical derivatives of 2DG with similarly documented ovarian activity; (ii) D-mannoheptulose; or (iii) 5-thio-D-glucose; and the administering step inhibits ovulation in the female subject. In a further embodiment, the glucose analog elevates the production of FOXO3a. In yet a further embodiment, FOXO3a prevents activation of oocytes during follicle development. In another embodiment, a therapeutically effective amount of at least one glucose analog is co-administered to the subject. In one example, FOXO3a mRNA and protein levels are induced in response to amino acid and glucose_deprivation in human ovarian carcinoma (SKOV3) cells. In order to establish a connection between FOXO3a and glucose deprivation, one example was used in which human ovarian carcinoma (SKOV3) cells were treated with 2-deoxyglucose (2-DOG or 2-DG) followed by mRNA analysis by real-time RT-PCR (FIG. 1) and immunoblot analysis (FIG. 2). 2-DG has been effectively employed as an alternative to glucose (deprivation) depletion. […] The fold increases were determined using a ΔΔCT method with cyclophilin A as the internal reference gene for each sample. […] Control cells (FED/MEM) were given complete media.

FOXO3a protein = assay: Immunoblot analysis of FOXO3a protein levels in SKOV3 cells; format: cell-based, human; details: vs FED/MEM control
Description: In another embodiment, the subject invention relates to a method for decreasing the fertility of a subject, comprising administering a therapeutically effective amount of a glucose analog to the subject, wherein the glucose analog comprises one or more of (i) 2-deoxyglucose (2DG) or a combination of 2DG with chemical derivatives of 2DG with similarly documented ovarian activity; (ii) D-mannoheptulose; or (iii) 5-thio-D-glucose; and the administering step inhibits ovulation in the female subject. In a further embodiment, the glucose analog elevates the production of FOXO3a. In yet a further embodiment, FOXO3a prevents activation of oocytes during follicle development. In another embodiment, a therapeutically effective amount of at least one glucose analog is co-administered to the subject. In one example, FOXO3a mRNA and protein levels are induced in response to amino acid and glucose_deprivation in human ovarian carcinoma (SKOV3) cells. In order to establish a connection between FOXO3a and glucose deprivation, one example was used in which human ovarian carcinoma (SKOV3) cells were treated with 2-deoxyglucose (2-DOG or 2-DG) followed by mRNA analysis by real-time RT-PCR (FIG. 1) and immunoblot analysis (FIG. 2). […] The fold increases were determined using a ΔΔCT method with cyclophilin A as the internal reference gene for each sample. […]

FOXO3a = assay: Mouse ovarian organ culture, FOXO3a mRNA and protein expression; format: cell-based
Foxo3a mRNA [2] = assay: Pilot study in mice injected IP daily for two weeks: ovary Foxo3a mRNA by real-time RT-PCR; format: in vivo; details: for Foxo3a mRNA levels in ovary, increase: two weeks, 5-week-old mice
Description: (§1) Not to be bound to any particular mechanism, it is believed that in one aspect of the present invention, by administering a therapeutically effective amount of the non-hormonal contraceptive composition to a female subject, cellular signals are induced activating a regulatory factor which blocks maturation of the […] and suppresses ovulation. In one example, a pilot study was conducted in which 5-week-old mice were intraperitoneally (IP) injected daily with 2-DG for two weeks. To determine an effective dose, 100, 300 and 600 mg/kg 2-DG was tested, with 6 animals in each treated group and 6 mice in the control group (0) injected with PBS. Following the two week study, the mice were sacrificed and the ovaries removed for mRNA and histological analyses. […] The contralateral ovary was used for histological analysis of the total numbers of follicle types in the entire ovary. Ovaries were fixed in 10% neutral buffered formalin, embedded in paraffin, then serially sectioned at 8 μm and stained with hematoxylin. Follicles were counted in every fifth section with random start. Follicles were classified following Pedersen and Peters guidelines. Most relevant to the data presented here, type 3a and 3b follicles were classified as having a single layer of granulosa cells surrounding the oocyte, and the two were distinguished from each other by the number of granulosa cells in that single layer. […] Only follicles containing an oocyte with a clearly visible nucleus were scored, to ensure that each follicle was counted only once. It should be noted that type 3a follicles are the first stage of folliculogenesis from the primordial follicle, the dormant stage at which FOXO3a acts as a brake. After follicles were counted in each fifth section, the total number of each type was multiplied by a correction factor of five to estimate total number of follicles in each ovary. The collective data is shown in the bar graph in FIG. 5. […] This is particularly advantageous as it allows lower dosages of one of the analogs or dosages of two or more analogs in therapeutic compositions. […]

type 3a follicles = assay: Pilot study in mice injected IP daily for two weeks: histological count of follicle types per ovary; format: in vivo; details: for Reduction in number of type 3a follicles: two weeks, vs PBS controls
Description: as §1

[3] = cited from earlier work
[4] = animal metabolic and nutritional studies, human nutritional and cancer studies/clinical trials; cited from earlier work
[5] = women, cited from earlier work
[6] = preliminary dose response studies, mice injected for two weeks

## O=CC[C@@H](O)[C@H](O)[C@H](O)CO [2-DG, 2-deoxyglucose]
Foxo3a mRNA [1]; SKOV3 cells
  Duration of Foxo3a mRNA induction: maintained out to 24 h
Foxo3a mRNA [1]; SKOV3 cells, by 4 h, ΔΔCT vs cyclophilin A
  Foxo3a mRNA induction: approximately 2.5 fold
Foxo3a mRNA [1]; human ovarian carcinoma cells in culture
  FOXO3a mRNA and protein expression: specific induction
FOXO3a protein
  Foxo3a protein levels: increased
FOXO3a
  FOXO3a mRNA and protein expression: specific induction
Foxo3a mRNA [2]; 100 mg/kg IP daily
  Foxo3a mRNA levels in ovary, increase: ~4 fold
Foxo3a mRNA [2]; 600 mg/kg IP daily
  Foxo3a mRNA levels in ovary, increase: ~2.75 fold
Foxo3a mRNA [2]; [6]
  Increase in mRNA synthesis of FOXO3a in the ovary: 2-4 fold
Type 3a follicles; 100 mg/kg IP daily
  Reduction in number of type 3a follicles: ~60%
Type 3a follicles; 600 mg/kg IP daily
  Reduction in number of type 3a follicles: 32%
Type 3a follicles; [6]
  Decrease in maturation of primary follicles: 32-60%
[3]
  Solubility in aqueous solutions: freely soluble
[4]
  Side effects: no documented side effects

## N[C@H](CO)Cc1c[nH]cn1 [His-OH, histidinol, reference compound]
FOXO3a protein
  Foxo3a protein levels: increased

## CC(=O)O[C@]1(C(C)=O)CC[C@H]2[C@@H]3C[C@H](C)C4=CC(=O)CC[C@]4(C)[C@H]3CC[C@@]21C [depot medroxyprogesterone acetate, medroxyprogesterone acetate]
[5]; after 24 months of use, average
  Loss in bone mineral density: 5.7%
[5]; between months 12 and 24
  Loss in bone mineral density: 3.2%
